From patent EP2716638A1, “Labeled ligands of the oxytocyn receptor” (Université de Strasbourg, priority 2012, dated 2014)

Columns and labels:
V1aR = target: T1, V1aR (Homo sapiens, UniProt P37288); test: TR-FRET (HTRF) saturation binding assay on SNAP-tag labeled receptor in cells; conditions: saturation with fluorescent ligand; mean ± SEM of three independent experiments in triplicate; read-out: Binding, HTRF (Kd, nM) V1a
T1 construct: expressed in transfected cells; host or cells: HEK 293T (printed for the general protocol, whose plasmid sentence names only the V2 receptor)
T1 sequence (P37288 whole entry): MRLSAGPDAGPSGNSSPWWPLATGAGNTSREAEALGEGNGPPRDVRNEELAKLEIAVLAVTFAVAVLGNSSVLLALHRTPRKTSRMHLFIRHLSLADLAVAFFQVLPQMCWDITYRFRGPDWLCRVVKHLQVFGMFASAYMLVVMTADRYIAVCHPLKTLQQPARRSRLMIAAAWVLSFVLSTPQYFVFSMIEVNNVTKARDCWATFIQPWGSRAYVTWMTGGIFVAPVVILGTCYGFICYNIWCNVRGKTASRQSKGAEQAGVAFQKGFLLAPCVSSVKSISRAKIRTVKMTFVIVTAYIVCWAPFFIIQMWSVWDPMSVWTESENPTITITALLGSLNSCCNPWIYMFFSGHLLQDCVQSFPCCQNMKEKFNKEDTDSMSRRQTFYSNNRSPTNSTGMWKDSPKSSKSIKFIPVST
Protocol: (§1) These assays were performed as described in Zwier et al (Journal of Biomolecular Screening 2010, 15, 1248-1259). Briefly, HEK 293T cells were cultivated in DMEM medium supplemented with 10% foetal calf serum (FCS) and 1% penicillin/streptomycin antibiotics. Confluent cells were dissociated and electroporated with plasmid DNA coding for the V2 receptor fused to the SNAP-tag suicide enzyme. Transfected cells were then plated in black 96-well plates previously coated with poly-ornithine (diluted at 0.1 mg.mL^-1 in sterile water, incubated 30 min at 37°C, washed with sterile PBS). Plates were incubated in supplemented DMEM medium for 48h à 37°C, […] and 5% CO2. Expressed receptors fused to SNAPtag were then labeled with fluorescent substrates, either with a donor (SNAP-Lumi4-Tb) or an acceptor (SNAP-RED) at respectively 100 or 300 nM in 100 µL of Tag-lite® labeling medium, for 1 h at 37 °C. Cells were then washed 3 times in Tag-lite medium and then incubated with the fluorescent ligands. For saturation assays, increasing concentrations of fluorescent ligands were diluted in 100 µL of Tag-lite medium. For competition assays, a fixed concentration of fluorescent ligand (typically 20 nM) was mixed with an increasing concentration of cold competitor ligand (in this case AVP) in Tag-lite medium. After overnight incubation at 4 °C (to prevent any internalization phenomenon), plates were read in an HTRF®-compatible multi-well plate reader with a classic HTRF® protocol (excitation at 340 nm, donor emission measured at 620 nm and acceptor emission at 665 nm, 50 µs delay, 500 µs integration).
(§2) Fluorescent compounds 21 to 24 were involved in the development of a TR-FRET based assay for both V1aR and OTR. Such technique usually offers a higher signal-to-noise ratio than classic FRET because of the long-lasting fluorescence of the lanthanide cryptate. TR-FRET based saturation experiments with fluorescent compounds 21 to 24 were performed on V1a, OT and V2 receptors labeled with the SNAP-tag® approach: cells expressing a receptor of interest fused to SNAP-tag are incubated in the presence of a fluorescent substrate to label the receptor. Cells were then incubated in the presence of increasing concentrations of a fluorescent ligand. Fluorophores of the SNAP-tag substrates and of the ligands are chosen to be compatible with time-resolved FRET. SNAP-tagged receptors were labeled either with a Lumi4-Tb donor (SNAP-Lumi4-Tb) or d2 acceptor (SNAP-red) depending on the nature of the ligands, either acceptor (21, 22) or donor (23, 24). Saturation curves were obtained when plotting specific FRET signal as a function of fluorescent compounds concentration; non-specific binding was determined in the presence of an excess of the unlabeled corresponding ligands (10 µM) (Figure 1).

V2 receptor = target: T2, V2 receptor (Homo sapiens, UniProt P30518); test: as above; conditions: saturation with fluorescent ligand; mean ± SEM of three independent experiments in triplicate
T2 construct: expressed in transfected cells; host or cells: HEK 293T
T2 sequence (P30518 whole entry): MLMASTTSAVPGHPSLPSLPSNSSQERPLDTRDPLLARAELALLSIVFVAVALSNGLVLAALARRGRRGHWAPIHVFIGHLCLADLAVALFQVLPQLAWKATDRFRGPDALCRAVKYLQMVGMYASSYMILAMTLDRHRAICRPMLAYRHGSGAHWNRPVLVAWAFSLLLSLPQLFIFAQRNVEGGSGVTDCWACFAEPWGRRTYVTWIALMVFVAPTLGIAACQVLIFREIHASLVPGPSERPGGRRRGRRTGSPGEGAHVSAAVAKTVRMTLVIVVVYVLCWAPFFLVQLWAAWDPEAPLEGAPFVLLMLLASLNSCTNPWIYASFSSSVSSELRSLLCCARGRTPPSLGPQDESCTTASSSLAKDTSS
Protocol: as §1, §2

OTR = target: T3, OTR (Homo sapiens, UniProt P30559); test: as above; conditions: saturation with fluorescent ligand; mean ± SEM of three independent experiments in triplicate; read-out: Binding, HTRF (Kd, nM) OT
T3 construct: expressed in transfected cells; host or cells: HEK 293T (printed for the general protocol, whose plasmid sentence names only the V2 receptor)
T3 sequence (P30559 1-389): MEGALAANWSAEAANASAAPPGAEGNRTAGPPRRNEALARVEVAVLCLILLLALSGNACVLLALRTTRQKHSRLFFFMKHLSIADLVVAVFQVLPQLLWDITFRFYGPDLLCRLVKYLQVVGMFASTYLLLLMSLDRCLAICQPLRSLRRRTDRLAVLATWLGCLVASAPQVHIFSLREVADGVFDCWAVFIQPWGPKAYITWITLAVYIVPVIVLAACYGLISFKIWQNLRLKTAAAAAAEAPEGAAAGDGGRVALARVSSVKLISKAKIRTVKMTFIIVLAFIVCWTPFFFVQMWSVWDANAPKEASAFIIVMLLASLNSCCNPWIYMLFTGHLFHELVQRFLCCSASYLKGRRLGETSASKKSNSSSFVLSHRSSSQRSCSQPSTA
Protocol: as §1, §2

cAMP accumulation [1] = test: cAMP accumulation functional assay (agonist and antagonist mode); type: cell-based
cAMP accumulation [2] = test: as above; type: cell-based; remark: listed apart in the source
[3] = cell incubation with fluorescent compound at a concentration of 100-fold Ki

Q: How did the Kd (V1aR) turn out when CCN1C(=CC=CC=CC2=[N+](CC)c3ccc(S(=O)(=O)[O-])cc3C2(C)C)C(C)(CCCC(=O)NCCOCCN2CCN(CCCCCCOc3cccc(C)c3-n3c(C)nnc3-c3ccc(-c4ccccc4)cc3)CC2)c2cc(S(=O)(=O)O)ccc21 (stereo not shown) [Compound 21] was run?
A: Its Kd is 6 ± 2 nM.

Q: What about the Kd (V2 receptor) of the same compound?
A: Its Kd is greater than 1000 nM.

Q: What about the Kd (OTR) of the same compound?
A: Its Kd is 7 ± 2 nM.

Q: What about the “cyclic adenosine monophosphate (cAMP) accumulation (intrinsic agonist activity)” value (cAMP accumulation [1]; [3]) of the same compound?
A: Its value is “No significant increase in accumulation of second messengers”.

Q: What about the “inhibition of AVP-induced cAMP accumulation” value (cAMP accumulation [1]; dose-dependent, antagonist mode) of the same compound?
A: Its value is “fully inhibited”.

Q: Which results are given for CCN1C(=CC=CC=CC2=[N+](CC)c3ccc(S(=O)(=O)[O-])cc3C2(C)C)C(C)(CCCC(=O)NCCOCCOCCOCCN2CCN(CCCCCCOc3cccc(C)c3-n3c(C)nnc3-c3ccc(-c4ccccc4)cc3)CC2)c2cc(S(=O)(=O)O)ccc21 (stereo not shown) [Compound 22]?
A: Kd (V1aR): 10 ± 2 nM; Kd (V2 receptor): > 1000 nM; Kd (OTR): 11 ± 2 nM

Q: With arginine vasopressin [AVP] as the compound, how does the EC50 (cAMP accumulation [2]; cAMP accumulation, agonist potency, read-out: Kact) read?
A: Its EC50 is 0.29 nM.

Q: And the “cyclic adenosine monophosphate (cAMP) accumulation (intrinsic agonist activity)” value (cAMP accumulation [2]; [3])?
A: The value was “full agonist properties”.
